According to ChEMBL document CHEMBL4321854, “Discovery of a First-in-Class Mitogen-Activated Protein Kinase Kinase 1/2 Degrader” (J Med Chem, 2019):
The source made the active and inactive calls. The calls are words filed in the database; no cut-off is given here.

Columns and labels:
[1] = molecular target: T1, von Hippel-Lindau disease tumor suppressor/Dual specificity mitogen-activated protein kinase kinase 1 (Homo sapiens) (UniProt Q02750+P40337); experiment: (§1) Protac activity against VHL/MEK1 in human COLO205 cells harboring BRAF V600E variant assessed as degradation of MEK1 after 24 hrs by Western blot analysis; assay type: cell-based
[2] = molecular target: T2, von Hippel-Lindau disease tumor suppressor/Dual specificity mitogen-activated protein kinase kinase 1 (Homo sapiens, UniProt Q02750+P40337, V600E); experiment: as §1; assay type: cell-based
[3] = molecular target: T1, von Hippel-Lindau disease tumor suppressor/Dual specificity mitogen-activated protein kinase kinase 1 (Homo sapiens); experiment: (§2) Protac activity against VHL/MEK1 in human UACC257 cells harboring BRAF V600E variant assessed as degradation of MEK1 after 24 hrs by Western blot analysis; assay type: cell-based
[4] = molecular target: T2, von Hippel-Lindau disease tumor suppressor/Dual specificity mitogen-activated protein kinase kinase 1; experiment: as §2; assay type: cell-based
[5] = molecular target: T1, von Hippel-Lindau disease tumor suppressor/Dual specificity mitogen-activated protein kinase kinase 1 (Homo sapiens); experiment: Protac activity against VHL/MEK1 in human HT-29 cells harboring with BRAF V600E variant assessed as degradation of MEK1 by measuring reduction in MEK1 protein level at 0.5 uM after 24 hrs by Western blot analysis relative to control; assay type: cell-based; parameters: scale not given: the % may be the effect or the level left
[6] = molecular target: T1, von Hippel-Lindau disease tumor suppressor/Dual specificity mitogen-activated protein kinase kinase 1 (Homo sapiens); experiment: Protac activity against VHL/MEK1 in human SK-MEL-28 cells harboring with BRAF V600E variant assessed as degradation of MEK1 by measuring reduction in MEK1 protein level at 0.3 uM after 24 hrs by Western blot analysis relative to control; assay type: cell-based; parameters: scale not given: the % may be the effect or the level left
[7] = molecular target: T3, von Hippel-Lindau disease tumor suppressor/Dual specificity mitogen-activated protein kinase kinase 2 (Homo sapiens) (UniProt P36507+P40337); experiment: Protac activity against VHL/MEK2 in human HT-29 cells harboring with BRAF V600E variant assessed as degradation of MEK2 at 3 to 5 uM after 24 hrs by Western blot analysis; assay type: cell-based
[8] = molecular target: T3, von Hippel-Lindau disease tumor suppressor/Dual specificity mitogen-activated protein kinase kinase 2 (Homo sapiens); experiment: Protac activity against VHL/MEK2 in human SK-MEL-28 cells harboring with BRAF V600E variant assessed as degradation of MEK2 at 3 to 5 uM after 24 hrs by Western blot analysis; assay type: cell-based
[9] = molecular target: T1, von Hippel-Lindau disease tumor suppressor/Dual specificity mitogen-activated protein kinase kinase 1 (Homo sapiens); experiment: Protac activity against VHL/MEK1 in human HT-29 cells harboring with BRAF V600E variant assessed as degradation of MEK1 by measuring reduction in MEK1 protein level at 0.1 to 0.3 uM after 2 hrs by Western blot analysis; assay type: cell-based
[10] = molecular target: T3, von Hippel-Lindau disease tumor suppressor/Dual specificity mitogen-activated protein kinase kinase 2 (Homo sapiens); experiment: Protac activity against VHL/MEK2 in human HT-29 cells harboring with BRAF V600E variant assessed as degradation of MEK2 by measuring reduction in MEK2 protein level at 0.1 to 0.3 uM after 2 hrs by Western blot analysis; assay type: cell-based
[11] = molecular target: T3, von Hippel-Lindau disease tumor suppressor/Dual specificity mitogen-activated protein kinase kinase 2 (Homo sapiens); experiment: Protac activity against VHL/MEK2 in human SK-MEL-28 cells harboring with BRAF V600E variant assessed as degradation of MEK2 by measuring reduction in MEK2 protein level at 0.1 to 0.3 uM after 2 hrs by Western blot analysis; assay type: cell-based
[12] = molecular target: T4, von Hippel-Lindau disease tumor suppressor/Dual specificity mitogen-activated protein kinase kinase 2/Dual specificity mitogen-activated protein kinase kinase 1 (Homo sapiens) (UniProt P36507+Q02750+P40337); experiment: Protac activity against VHL/MEK1/2 in human HT-29 cells harboring with BRAF V600E variant assessed as reduction in phosphorylation of MEK at S218/222 residues at 0.1 to 0.3 after >= 2 hrs by Western blot analysis; assay type: cell-based
[13] = molecular target: T4, von Hippel-Lindau disease tumor suppressor/Dual specificity mitogen-activated protein kinase kinase 2/Dual specificity mitogen-activated protein kinase kinase 1 (Homo sapiens); experiment: Protac activity against VHL/MEK1/2 in human HT-29 cells harboring with BRAF V600E variant assessed as reduction in phosphorylation of ERK at T202/Y204 residues at 0.3 uM after 24 to 144 hrs by Western blot analysis; assay type: cell-based
[14] = molecular target: T4, von Hippel-Lindau disease tumor suppressor/Dual specificity mitogen-activated protein kinase kinase 2/Dual specificity mitogen-activated protein kinase kinase 1 (Homo sapiens); experiment: Protac activity against VHL/MEK1/2 in human HT-29 cells harboring with BRAF V600E variant assessed as reduction in phosphorylation of MEK at S218/222 residues at 0.3 uM incubated for 6 days by Western blot analysis; assay type: cell-based
[15] = molecular target: T4, von Hippel-Lindau disease tumor suppressor/Dual specificity mitogen-activated protein kinase kinase 2/Dual specificity mitogen-activated protein kinase kinase 1 (Homo sapiens); experiment: Protac activity against VHL/MEK1/2 in human HT-29 cells harboring with BRAF V600E variant assessed as phosphorylation of MEK at S218/222 residues at 0.3 uM pretreated with MEK1/2 inhibitor, PD0325901 for 2 hrs followed by incubation with compound for 2 hrs by Western blot analysis; assay type: cell-based
[16] = molecular target: T4, von Hippel-Lindau disease tumor suppressor/Dual specificity mitogen-activated protein kinase kinase 2/Dual specificity mitogen-activated protein kinase kinase 1 (Homo sapiens); experiment: Protac activity against VHL/MEK1/2 in human SK-MEL-28 cells harboring with BRAF V600E variant assessed as phosphorylation of ERK at T202/Y204 residues at 0.3 uM pretreated with VHL ligand, VH 032 for 2 hrs followed by incubation with compound for 10 hrs by Western blot analysis; assay type: cell-based
[17] = molecular target: T1, von Hippel-Lindau disease tumor suppressor/Dual specificity mitogen-activated protein kinase kinase 1 (Homo sapiens); experiment: (§3) Protac activity against VHL/MEK1 in human HT-29 cells harboring with BRAF V600E variant assessed as degradation of MEK1 by measuring MEK1 protein level at 0.3 uM pretreated with proteasome inhibitor, MG-132 for 2 hrs followed by incubation with compound for 10 hrs by Western blot analysis; assay type: cell-based
[18] = molecular target: T4, von Hippel-Lindau disease tumor suppressor/Dual specificity mitogen-activated protein kinase kinase 2/Dual specificity mitogen-activated protein kinase kinase 1 (Homo sapiens); experiment: Protac activity against VHL/MEK1/2 in human HT-29 cells harboring with BRAF V600E variant assessed as phosphorylation of MEK at S218/222 residues at 0.3 uM pretreated with proteasome inhibitor, MG-132 for 2 hrs followed by incubation with compound for 10 hrs by Western blot analysis; assay type: cell-based
[19] = molecular target: T4, von Hippel-Lindau disease tumor suppressor/Dual specificity mitogen-activated protein kinase kinase 2/Dual specificity mitogen-activated protein kinase kinase 1 (Homo sapiens); experiment: (§4) Protac activity against VHL/MEK1/2 in human SK-MEL-28 cells harboring with BRAF V600E variant assessed as phosphorylation of MEK at S218/222 residues at 0.3 uM pretreated with proteasome inhibitor, MG-132 for 2 hrs followed by incubation with compound for 10 hrs by Western blot analysis; assay type: cell-based
[20] = molecular target: T1, von Hippel-Lindau disease tumor suppressor/Dual specificity mitogen-activated protein kinase kinase 1 (Homo sapiens); experiment: as §3, with “NEDD8-activating enzyme” for “proteasome”, “MLN4924” for “MG-132”; assay type: cell-based
[21] = molecular target: T4, von Hippel-Lindau disease tumor suppressor/Dual specificity mitogen-activated protein kinase kinase 2/Dual specificity mitogen-activated protein kinase kinase 1 (Homo sapiens); experiment: as §4, with “NEDD8-activating enzyme” for “proteasome”, “MLN4924” for “MG-132”; assay type: cell-based
[22] = molecular target: von Hippel-Lindau disease tumor suppressor/Cullin-9 (Homo sapiens) (UniProt P40337+Q8IWT3); experiment: Protac activity against VHL/cullin9 in human HT-29 cells harboring with BRAF V600E variant assessed as reduction in Cullin9 protein level at 0.1 uM after 10 hrs by LC-MS based Volcano plot analysis; assay type: cell-based
[23] = molecular target: von Hippel-Lindau disease tumor suppressor/Leukocyte receptor cluster member 8 (Homo sapiens) (UniProt P40337+Q96PV6); experiment: Protac activity against VHL/LENG8 in human HT-29 cells harboring with BRAF V600E variant assessed as LENG8 protein level at 0.1 uM after 10 hrs by Western blot analysis; assay type: cell-based
[24] = test system: HT-29; experiment: Inhibition of colony formation in human HT-29 cells at 10 to 100 nM supplemented with fresh medium containing compound every 3 days for 14 days by crystal violet staining based assay; assay type: functional, cell-based
[25] = Ratio of Plasma concentration in Swiss albino mouse at 50 mg/kg, ip measured after 8 hrs to GI50 for antiproliferative activity against human HT-29 cells; assay type: organism-based; conditions: in vivo
[26] = Ratio of Plasma concentration in Swiss albino mouse at 50 mg/kg, ip measured after 8 hrs to GI50 for antiproliferative activity against human UACC257 cells; assay type: organism-based; conditions: in vivo
[27] = molecular target: T3, von Hippel-Lindau disease tumor suppressor/Dual specificity mitogen-activated protein kinase kinase 2 (Homo sapiens); experiment: Protac activity against VHL/MEK2 in human HT-29 cells harboring with BRAF V600E variant assessed as degradation of MEK2 at 0.1 to 0.3 uM by Western blot analysis; assay type: cell-based; conditions: TDE = time-dependent effect

T3 sequence (P36507 whole entry, looked up): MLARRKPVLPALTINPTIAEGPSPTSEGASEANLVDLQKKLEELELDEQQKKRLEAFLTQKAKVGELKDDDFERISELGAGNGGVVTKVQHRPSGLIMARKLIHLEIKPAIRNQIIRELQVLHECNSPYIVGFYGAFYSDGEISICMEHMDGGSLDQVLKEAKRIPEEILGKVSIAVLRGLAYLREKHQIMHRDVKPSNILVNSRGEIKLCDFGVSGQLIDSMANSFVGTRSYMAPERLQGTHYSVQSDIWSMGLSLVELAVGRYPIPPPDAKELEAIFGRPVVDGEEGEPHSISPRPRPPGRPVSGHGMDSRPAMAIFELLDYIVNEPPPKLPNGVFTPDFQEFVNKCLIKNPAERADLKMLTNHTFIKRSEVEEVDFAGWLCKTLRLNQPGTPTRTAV
T3 sequence (P40337 whole entry, looked up): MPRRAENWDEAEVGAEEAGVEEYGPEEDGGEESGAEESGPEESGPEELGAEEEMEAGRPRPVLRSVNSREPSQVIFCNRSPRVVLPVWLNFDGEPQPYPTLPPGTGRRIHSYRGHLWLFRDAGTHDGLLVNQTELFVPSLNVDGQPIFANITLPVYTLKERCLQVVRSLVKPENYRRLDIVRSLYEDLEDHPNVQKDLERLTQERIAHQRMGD
T4 sequence (P36507 whole entry, looked up): as the sequence (P36507 whole entry, looked up) above
T4 sequence (P40337 whole entry, looked up): as the sequence (P40337 whole entry, looked up) above
T4 sequence (Q02750 whole entry, looked up): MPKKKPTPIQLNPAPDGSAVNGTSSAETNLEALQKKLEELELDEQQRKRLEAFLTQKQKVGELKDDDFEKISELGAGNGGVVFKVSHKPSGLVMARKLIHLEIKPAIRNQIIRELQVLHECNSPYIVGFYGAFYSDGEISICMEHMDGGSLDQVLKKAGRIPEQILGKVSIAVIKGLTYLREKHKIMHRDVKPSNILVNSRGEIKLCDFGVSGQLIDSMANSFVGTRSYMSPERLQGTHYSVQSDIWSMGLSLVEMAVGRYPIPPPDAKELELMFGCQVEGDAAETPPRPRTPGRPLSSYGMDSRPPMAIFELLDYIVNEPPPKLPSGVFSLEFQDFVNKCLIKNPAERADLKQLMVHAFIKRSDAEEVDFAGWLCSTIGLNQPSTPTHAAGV
T1 sequence (P40337 whole entry, looked up): as the sequence (P40337 whole entry, looked up) above
T1 sequence (Q02750 whole entry, looked up): as the sequence (Q02750 whole entry, looked up) above
T2 sequence (P40337 whole entry, looked up, stated change not applied): as the sequence (P40337 whole entry, looked up) above
T2 sequence (Q02750 whole entry, looked up, stated change not applied): as the sequence (Q02750 whole entry, looked up) above
von Hippel-Lindau disease tumor suppressor/Cullin-9 (Homo sapiens), sequence (P40337 whole entry, looked up): as the sequence (P40337 whole entry, looked up) above
von Hippel-Lindau disease tumor suppressor/Cullin-9 (Homo sapiens), sequence (Q8IWT3 whole entry, looked up): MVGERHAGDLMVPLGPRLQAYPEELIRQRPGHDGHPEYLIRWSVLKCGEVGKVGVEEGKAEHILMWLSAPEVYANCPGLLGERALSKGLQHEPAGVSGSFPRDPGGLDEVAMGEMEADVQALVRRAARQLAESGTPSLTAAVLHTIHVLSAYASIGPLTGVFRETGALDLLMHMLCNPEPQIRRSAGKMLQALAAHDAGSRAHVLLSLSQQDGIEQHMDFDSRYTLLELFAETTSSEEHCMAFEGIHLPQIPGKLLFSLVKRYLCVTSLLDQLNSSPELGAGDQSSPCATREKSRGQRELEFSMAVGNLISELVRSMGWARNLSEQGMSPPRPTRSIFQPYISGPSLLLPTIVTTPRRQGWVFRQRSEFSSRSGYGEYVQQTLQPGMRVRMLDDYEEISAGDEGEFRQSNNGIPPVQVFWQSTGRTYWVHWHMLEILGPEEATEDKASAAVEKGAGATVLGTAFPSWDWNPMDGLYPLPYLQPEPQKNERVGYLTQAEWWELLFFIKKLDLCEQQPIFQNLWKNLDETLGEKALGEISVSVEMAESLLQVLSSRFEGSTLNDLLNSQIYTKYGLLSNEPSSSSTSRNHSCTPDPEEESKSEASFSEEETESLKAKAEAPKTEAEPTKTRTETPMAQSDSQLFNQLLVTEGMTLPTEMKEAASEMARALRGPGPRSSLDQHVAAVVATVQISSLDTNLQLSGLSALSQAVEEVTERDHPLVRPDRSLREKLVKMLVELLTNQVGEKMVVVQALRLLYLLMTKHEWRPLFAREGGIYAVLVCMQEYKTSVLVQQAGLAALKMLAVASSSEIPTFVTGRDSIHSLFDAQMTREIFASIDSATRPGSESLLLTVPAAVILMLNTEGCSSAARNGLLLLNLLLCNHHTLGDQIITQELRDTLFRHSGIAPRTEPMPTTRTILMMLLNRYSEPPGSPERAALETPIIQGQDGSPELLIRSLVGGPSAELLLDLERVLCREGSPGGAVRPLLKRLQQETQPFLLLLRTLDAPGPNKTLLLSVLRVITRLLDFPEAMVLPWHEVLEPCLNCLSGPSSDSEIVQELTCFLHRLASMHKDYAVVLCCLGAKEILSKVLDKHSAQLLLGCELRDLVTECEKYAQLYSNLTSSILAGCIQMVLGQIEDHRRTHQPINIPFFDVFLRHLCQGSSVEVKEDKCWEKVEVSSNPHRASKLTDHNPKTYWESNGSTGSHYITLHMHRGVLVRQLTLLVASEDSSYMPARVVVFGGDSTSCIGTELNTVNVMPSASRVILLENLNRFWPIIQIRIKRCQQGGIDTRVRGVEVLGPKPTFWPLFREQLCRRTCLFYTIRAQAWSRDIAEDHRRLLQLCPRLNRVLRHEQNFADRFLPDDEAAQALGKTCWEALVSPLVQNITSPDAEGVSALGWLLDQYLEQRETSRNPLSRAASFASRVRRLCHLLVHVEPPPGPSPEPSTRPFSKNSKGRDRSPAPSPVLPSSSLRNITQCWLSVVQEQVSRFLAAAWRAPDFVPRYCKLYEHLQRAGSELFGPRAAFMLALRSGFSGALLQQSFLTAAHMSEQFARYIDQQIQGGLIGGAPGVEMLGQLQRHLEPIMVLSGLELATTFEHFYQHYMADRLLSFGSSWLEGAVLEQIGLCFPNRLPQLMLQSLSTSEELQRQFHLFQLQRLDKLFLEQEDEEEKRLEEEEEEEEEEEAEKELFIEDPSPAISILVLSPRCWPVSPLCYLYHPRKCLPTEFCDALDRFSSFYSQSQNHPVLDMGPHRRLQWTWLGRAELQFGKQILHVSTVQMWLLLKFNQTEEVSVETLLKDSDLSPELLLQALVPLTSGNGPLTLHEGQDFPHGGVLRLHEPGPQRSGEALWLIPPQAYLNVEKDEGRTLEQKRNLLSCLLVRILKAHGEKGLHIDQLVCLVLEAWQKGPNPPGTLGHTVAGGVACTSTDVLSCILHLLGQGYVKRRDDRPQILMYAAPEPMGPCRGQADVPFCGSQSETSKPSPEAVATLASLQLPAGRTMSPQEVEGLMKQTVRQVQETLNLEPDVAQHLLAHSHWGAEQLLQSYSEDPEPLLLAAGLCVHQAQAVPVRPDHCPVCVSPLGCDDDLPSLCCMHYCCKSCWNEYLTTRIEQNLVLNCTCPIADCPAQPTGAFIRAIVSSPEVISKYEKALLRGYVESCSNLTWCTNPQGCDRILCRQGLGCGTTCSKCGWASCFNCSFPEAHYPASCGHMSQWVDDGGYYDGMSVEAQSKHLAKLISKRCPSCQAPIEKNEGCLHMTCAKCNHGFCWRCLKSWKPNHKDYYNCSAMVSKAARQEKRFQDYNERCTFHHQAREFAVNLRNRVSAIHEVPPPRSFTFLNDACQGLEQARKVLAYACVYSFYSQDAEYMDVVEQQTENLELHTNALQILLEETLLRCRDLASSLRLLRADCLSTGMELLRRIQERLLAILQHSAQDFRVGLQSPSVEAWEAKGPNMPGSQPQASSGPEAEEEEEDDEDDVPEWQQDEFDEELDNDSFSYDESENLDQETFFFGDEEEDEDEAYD

For `Cc1ncsc1-c1ccc([C@H](C)NC(=O)[C@@H]2C[C@@H](O)CN2C(=O)[C@@H](NC(=O)CCCCCCCCCCNCCCONC(=O)c2ccc(F)c(F)c2Nc2ccc(I)cc2F)C(C)(C)C)cc1`, which Activity [1] is on record?
The Activity was “Dose-dependent effect”.

And the DC50 [2]?
The DC50 was 18 nM.

And the Activity [3]?
Its Activity is “Dose-dependent effect”.

What about the DC50 [4] of the same molecule?
Its DC50 is 56 nM.

And the Activity [5]?
The Activity was over 80%.

And the Activity [6]?
The Activity was over 90%.

And the Activity [7]?
The Activity was “Active”.

And the Activity [8]?
The Activity was “Active”.

What about the Activity [9] of the same molecule?
Its Activity is “Active”.

And the Activity [10]?
The Activity was “Active”.

What about the Activity [11] of the same molecule?
The Activity was “Active”.

And the Activity [12]?
Its Activity is “Active”.

What about the Activity [13] of the same molecule?
The Activity was “Active”.

What about the Activity [14] of the same molecule?
The Activity was “Active”.

What about the Activity [15] of the same molecule?
The Activity was “inactive”.

And the Activity [16]?
The Activity was “inactive”.

And the Activity [17]?
The Activity was “inactive”.

And the Activity [18]?
The Activity was “inactive”.

And the Activity [19]?
Its Activity is “inactive”.

What about the Activity [20] of the same molecule?
The Activity was “inactive”.

What about the Activity [21] of the same molecule?
The Activity was “inactive”.

And the Activity [22]?
The Activity was “Active”.

And the Activity [23]?
The Activity was “inactive”.

What about the inhibition [24] of the same molecule?
The inhibition was “Active”.

What about the Ratio [25] of the same molecule?
Its Ratio is 3 to 20.

What about the Ratio [26] of the same molecule?
Its Ratio is 3 to 20.

What about the Activity [27] of the same molecule?
Its Activity is “Tde”.
